Like-named read-outs stand apart in the source and are kept apart here.
Experiments:
[1] = Pharmacokinetics (PK) of CDD-2807 in mice; type: in vivo; conditions: plasma; for AUC(0-inf) / AUC(0-t) / Cmax / Tmax / MRT inf / half-life: male, C57BL/6NJ, mouse; for MRT inf: read-out: MRT0-∞
Protocol: Pharmacokinetics (PK) of CDD-2807 in mice. The pharmacokinetic studies (72) of CDD-2807 were performed at three doses via intraperitoneal (i.p.) injection and oral (p.o.) administration.
CDD-2807 was dissolved in 10% Captisol containing 5% DMSO to prepare the solutions of 0.5 mg/mL, 2.5 mg/mL and 5.0 mg/mL. Twelve male mice (strain: C57BL/6NJ, 8−12 weeks) were divided equally and randomly into 4 groups (n = 3 for each dose). One group of mice were administered 5 mg/kg CDD-2807 (i.p., 10 µL/g of 0.5 mg/mL solution), the second group 25 mg/kg CDD-2807 (i.p., 10 µL/g of 2.5 mg/mL solution), the third group 5 mg/kg CDD-2807 (p.o., 10 µL/g of 0.5 mg/mL solution), and the fourth group 50 mg/kg CDD-2807 (p.o., 10 µL/g of 5.0 mg/mL solution). At 0, 5, 10, 15, 30 min, 1, 2, 4, 6, 8, 24 h post-dose, around 20 µL of blood was collected from the tail vein and anti-coagulated by heparin. The blood samples were centrifuged at 2000 g for 3 min at 4°C, and the plasma samples were transferred to tubes and stored at −80°C before analysis. All the samples were analyzed by the Thermo TSQ Quantis MS coupled with a Thermo Vanquish UHPLC (San Jose, CA). CDD-2807 was separated on a Luna C18 column (1 mm × 50 mm, 1.6 µm, Phenomenex, Torrance, CA), and eluted by a water-acetonitrile mobile phase system (both containing 0.1% formic acid, v/v) at the flow rate of 0.15 mL/min. CDD-2807 was monitored under the SRM mode coupled with a positive ESI source. The SRM ion pairs were 447→321 for CDD-2807. The ion spray voltage was set at 3500 V. High-purity nitrogen was used as the sheath gas (35 arbitrary unit), auxiliary gas (7 arbitrary unit), and high-purity argon was used as the collision gas. The temperatures of the ion transfer tube and the vaporizer were set at 300°C and 275°C, respectively. The concentration of CDD-2807 in plasma was quantified using individual calibration curves. The calibration curve was regressed with a weight of 1/x2 with high linearity (r2 >0.99). PK parameters, including half-time (t1/2), area under the plasma concentration– time curve from zero to infinity (AUC0–∞), clearance normalized by the bioavailability (CL/F), volume of distribution normalized by the bioavailability (Vd/F), and the mean residence time (MRT), were calculated by WinNonlin software (Certara, Princeton, NJ) by noncompartmental analysis. The plasma concentration–time curves were plotted in GraphPad Prism 9 (San Diego, […]

STK33 = STK33 (Homo sapiens, UniProt Q9BYT3); experiment: LanthaScreen binding assay (ThermoFisher SelectScreen); design: purchased SelectScreen Services (ThermoFisher)
Text: In vitro biochemical assays. Several small molecule assays were outsourced to SelectScreen Services (ThermoFisher) for STK33 and for off-target kinases (data sets are available on demand).
These assays are LanthaScreen (binding assay) and Z’-LYTE (activity assay). Dose-responses were done with at least 5 different concentrations in duplicates, and parameters were optimized by calculations described below and provided with standard errors.
Calculation of Kd values for kinase inhibitors that bind to the ATP pocket of a kinase from LanthaScreen binding data. DynaFit (71) was used to fit complex equilibria where a tracer is displaced by a dilution series of a kinase inhibitor. This method relies on the concentration of inhibitor, as well as the concentration of kinase and tracer, and Kd of the tracer. The latter three parameters are tabulated by ThermoFisher for each kinase in the LanthaScreen assay panel. […]
Since Kd and Ki values are defined the same way, in other words, Kd = [E] [I] / [EI] = Ki, Kd and Ki values can be compared. […]

[2] = po, p.o. administration 5 mg/kg
[3] = po, p.o. administration 50 mg/kg

Sequence of STK33 (Q9BYT3 whole entry): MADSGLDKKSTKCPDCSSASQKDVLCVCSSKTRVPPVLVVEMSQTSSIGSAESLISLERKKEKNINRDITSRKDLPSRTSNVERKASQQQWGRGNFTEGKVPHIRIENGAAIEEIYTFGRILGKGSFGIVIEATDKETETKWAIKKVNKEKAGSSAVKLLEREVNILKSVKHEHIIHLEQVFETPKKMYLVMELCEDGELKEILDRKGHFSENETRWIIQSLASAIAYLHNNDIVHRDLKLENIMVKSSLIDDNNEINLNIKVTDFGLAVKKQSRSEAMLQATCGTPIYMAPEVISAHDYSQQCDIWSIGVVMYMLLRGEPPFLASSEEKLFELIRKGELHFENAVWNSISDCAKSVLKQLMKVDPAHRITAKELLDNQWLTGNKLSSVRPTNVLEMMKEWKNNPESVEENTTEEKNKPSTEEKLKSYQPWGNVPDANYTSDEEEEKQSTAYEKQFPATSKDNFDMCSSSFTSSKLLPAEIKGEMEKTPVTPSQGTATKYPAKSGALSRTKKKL

For O=C(c1ccc2[nH]nc(C#Cc3ccccc3-c3ccccc3)c2c1)N1CC2(CCCNC2)C1 [CDD-2807], the AUC(0-inf) ([1]; ip, i.p. injection 5 mg/kg) was 11.2 ± 1.11 µM·h, the AUC(0-t) ([1]; ip, i.p. injection 5 mg/kg) was 9.46 ± 1.47 µM·h and the Cmax ([1]; ip, i.p. injection 5 mg/kg) was 2950 ± 640 nM. The Tmax ([1]; ip, i.p. injection 5 mg/kg) was 0.33 ± 0.14 h, the MRT inf ([1]; ip, i.p. injection 5 mg/kg) was 11.1 ± 4.43 h and the half-life ([1]; ip, i.p. injection 5 mg/kg, read-out: t1/2 (converted)) was 11.9 ± 4.38 h. For the same compound, the AUC(0-inf) ([1]; ip, i.p. injection 25 mg/kg) was 67.7 ± 12.4 µM·h, the AUC(0-t) ([1]; ip, i.p. injection 25 mg/kg) was 55.5 ± 5.42 µM·h and the Cmax ([1]; ip, i.p. injection 25 mg/kg) was 11900 ± 400 nM. It also gave a Tmax ([1]; ip, i.p. injection 25 mg/kg) of 0.33 ± 0.14 h, an MRT inf ([1]; ip, i.p. injection 25 mg/kg) of 12.2 ± 3.8 h and a half-life ([1]; ip, i.p. injection 25 mg/kg, read-out: t1/2 (converted)) of 11.3 ± 3.41 h. The half-life ([1]; ip, delivered intraperitoneally, read-out: plasma t1/2) was > 11 h, the AUC(0-inf) [1, 2] was 1.85 ± 0.66 µM·h and the AUC(0-t) [1, 2] was 0.71 ± 0.07 µM·h. The Cmax [1, 2] was 60 ± 20 nM, the Tmax [1, 2] was 1.03 ± 0.96 h and the MRT inf [1, 2] was 51.2 ± 28.9 h. It also gave a half-life ([1]; po, p.o. administration 5 mg/kg, read-out: t1/2 (converted)) of 36.1 ± 19.9 h, an AUC(0-inf) [1, 3] of 2.47 ± 0.34 µM·h and an AUC(0-t) [1, 3] of 1.88 ± 0.36 µM·h. The Cmax [1, 3] was 180 ± 90 nM, the Tmax [1, 3] was 2.67 ± 1.15 h and the MRT inf [1, 3] was 16.5 ± 2.8 h. For the same compound, the half-life ([1]; po, p.o. administration 50 mg/kg, read-out: t1/2 (converted)) was 12.6 ± 1.5 h, the CL/F ([1]; p.o. administration 5 mg/kg) was 2.91 ± 0.87 mg/h/µM/kg and the Vd/F ([1]; p.o. administration 5 mg/kg) was 134.88 ± 26.14 mg/µM/kg. The CL/F ([1]; p.o. administration 50 mg/kg) was 20.52 ± 3.02 mg/h/µM/kg, the Vd/F ([1]; p.o. administration 50 mg/kg) was 376.76 ± 89.83 mg/µM/kg and the Kd (STK33) was 0.02 nM.

Reference: article PMC11842024, “Reversible male contraception by targeted inhibition of serine/threonine kinase 33” (Science (New York, N.Y.), 2024)
